Molecular target: SRC (Homo sapiens, UniProt P12931)
Test: inhibition of SRC autophosphorylation (pY419) in cells, Western blot
Type: cell-based

SRC, sequence (P12931 2-536): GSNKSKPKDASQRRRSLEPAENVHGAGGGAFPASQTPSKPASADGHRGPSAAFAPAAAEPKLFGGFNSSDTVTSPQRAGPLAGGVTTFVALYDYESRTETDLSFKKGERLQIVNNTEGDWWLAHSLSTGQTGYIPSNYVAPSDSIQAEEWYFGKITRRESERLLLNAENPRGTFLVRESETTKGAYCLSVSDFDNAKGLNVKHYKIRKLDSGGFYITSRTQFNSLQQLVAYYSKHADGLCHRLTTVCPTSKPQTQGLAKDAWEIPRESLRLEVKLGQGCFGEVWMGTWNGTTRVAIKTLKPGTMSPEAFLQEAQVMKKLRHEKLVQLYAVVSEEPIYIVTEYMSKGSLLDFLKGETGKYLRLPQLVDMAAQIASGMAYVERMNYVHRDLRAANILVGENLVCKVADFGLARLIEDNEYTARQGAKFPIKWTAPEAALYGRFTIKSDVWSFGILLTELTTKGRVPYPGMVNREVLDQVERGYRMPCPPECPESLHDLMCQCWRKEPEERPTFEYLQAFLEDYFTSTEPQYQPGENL

## COc1cc(Nc2c(C#N)cnc3cc(OCCCN4CCN(C)CC4)c(OC)cc23)c(Cl)cc1Cl [bosutinib]
  inhibition of SRC autophosphorylation (pY419) in cells, Western blot: Bosutinib and saracatinib displayed weaker inhibition of SRC autophosphorylation in all the cell lines tested

From paper PMC7611940, “A Conformation Selective Mode of Inhibiting SRC Improves Drug Efficacy and Tolerability” (Cancer Research, 2021)
